Experimental data reported in WO2016087994A1, “Btk inhibitors to treat solid tumors through modulation of the tumor microenvironment” (dated 2016).
Entries after “also recorded” stand apart in the source; their conditions may differ. Read-outs that look alike come from different tables or passages of the source.

Experiments:
ID8 ovarian cancer = assay: ID8 syngeneic orthotopic ovarian cancer model; type: in vivo, mouse; details: 15 mg/kg/BID oral
[1] = system: PBMC subsets (MDSC, NK cells); assay: Peripheral blood cell subsets in CLL patients by flow cytometry; type: in vivo, human; details: C1D28, C2D28
CYP3A4 = CYP3A4 (Homo sapiens, UniProt P08684); assay: CYP metabolism (loss of parent drug); type: in vitro ADME; details: in vitro
Sequence of CYP3A4 (P08684 whole entry): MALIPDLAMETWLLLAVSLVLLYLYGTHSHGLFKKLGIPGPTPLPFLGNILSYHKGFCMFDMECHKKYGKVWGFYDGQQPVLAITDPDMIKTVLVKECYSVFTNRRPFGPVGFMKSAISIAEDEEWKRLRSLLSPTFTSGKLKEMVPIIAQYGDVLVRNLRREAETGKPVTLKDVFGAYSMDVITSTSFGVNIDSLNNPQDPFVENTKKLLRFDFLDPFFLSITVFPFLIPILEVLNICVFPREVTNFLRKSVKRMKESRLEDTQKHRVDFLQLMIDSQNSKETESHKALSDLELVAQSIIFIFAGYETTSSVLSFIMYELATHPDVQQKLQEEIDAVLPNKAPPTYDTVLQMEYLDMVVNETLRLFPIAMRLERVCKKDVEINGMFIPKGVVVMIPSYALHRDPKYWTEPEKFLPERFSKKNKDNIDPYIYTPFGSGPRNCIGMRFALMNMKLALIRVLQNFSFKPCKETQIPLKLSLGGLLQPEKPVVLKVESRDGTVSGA

[2] = system: B cell receptor (CD69 on CD19+ B cells); assay: Inhibition of BCR signaling (CD69) on B cells in whole blood; type: cell-based; details: Homo sapiens, 18 h
[3] = Brain and CSF pharmacokinetics in Sprague-Dawley rats; type: in vivo; details: rat
[4] = Functional observation battery; type: in vivo, rats; details: doses through 300 mg/kg
[5] = system: KrasG12D;Trp53R172H;Pdx1-Cre (KPC) derived pancreatic tumor; assay: Orthotopic pancreatic cancer model (KPC-derived cell line); type: in vivo, C57BL/6 mice; details: oral 15 mg/kg
[6] = In vivo metabolism in plasma, bile and urine; parameters: species or system rats, dogs, and monkeys; details: bile, urine, preliminary
hepatocytes = assay: Metabolism in hepatocytes with 14C-labeled Formula (II); type: in vitro ADME, mouse, rat, dog, rabbit, monkey, and human
primary CLL cells = assay: Rituximab ADCC, chromium release, primary CLL targets; type: cell-based, human; details: 1 μM; NK cells from CLL patients, autologous CLL cells
[7] = system: KPC derived mouse pancreatic cancer cells; assay: KPC-derived mouse pancreatic cancer cells injected into pancreas, Formula (II) and/or gemcitabine; type: in vivo; details: Formula (II) 15 mg/kg/BID oral; gemcitabine 15 mg/kg IV every 4 days x3
[8] = system: rituximab-coated Raji cells; assay: Rituximab ADCC, chromium release, Raji targets; type: cell-based, human; details: 1 μM; healthy donor NK cells / Raji
[9] = system: EGF receptor phosphorylation (p-EGFR), A431 cells; assay: In vitro EGFR phosphorylation in A431 cells; type: cell-based, human; details: 10 μM
[10] = system: NK cells with trastuzumab-coated HER18 breast cancer cells; assay: Trastuzumab-dependent NK cell degranulation (CD107a); type: cell-based, human; details: trastuzumab-stimulated
CYP enzymes = assay: Nonclinical CYP interaction studies; type: in vitro ADME
[11] = Cardiovascular function study in telemeterized dogs; type: in vivo, male beagle dogs; details: single doses through 30 mg/kg
Itk kinase = molecular target: T1, Itk kinase (Homo sapiens, UniProt Q08881); assay: Kinome screen, Itk; type: biochemical; details: see Table 2 (missing)
T1 construct: Life Technologies (performed the screen, or the value is from the literature)
T1 sequence (Q08881 whole entry): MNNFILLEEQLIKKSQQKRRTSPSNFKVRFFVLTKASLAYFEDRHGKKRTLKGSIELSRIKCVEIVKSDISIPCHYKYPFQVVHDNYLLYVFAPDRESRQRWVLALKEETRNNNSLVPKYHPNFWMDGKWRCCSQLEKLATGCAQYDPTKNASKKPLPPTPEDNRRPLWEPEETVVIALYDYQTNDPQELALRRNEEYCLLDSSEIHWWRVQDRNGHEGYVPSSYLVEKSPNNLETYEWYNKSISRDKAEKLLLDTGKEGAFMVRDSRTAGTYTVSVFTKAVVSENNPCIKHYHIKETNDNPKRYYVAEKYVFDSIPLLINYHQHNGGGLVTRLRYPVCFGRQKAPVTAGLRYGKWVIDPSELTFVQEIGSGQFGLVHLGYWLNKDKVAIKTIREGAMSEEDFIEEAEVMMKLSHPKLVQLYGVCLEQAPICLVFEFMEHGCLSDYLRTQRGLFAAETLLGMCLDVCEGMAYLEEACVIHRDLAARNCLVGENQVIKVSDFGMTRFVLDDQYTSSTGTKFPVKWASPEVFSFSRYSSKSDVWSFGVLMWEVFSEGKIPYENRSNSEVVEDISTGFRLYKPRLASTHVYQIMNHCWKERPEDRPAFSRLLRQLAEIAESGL

[12] = Respiratory function study; type: in vivo, rats; details: doses through 300 mg/kg
[13] = system: NK cells with trastuzumab-coated HER18 breast cancer cells; assay: Trastuzumab-dependent NK cell IFN-γ secretion; type: cell-based, human; details: trastuzumab-stimulated
CXCL12 and CCL2 = assay: Plasma chemokines in treated CLL patients; type: in vivo, human
[14] = system: human platelet-mediated thrombosis; assay: In vivo human platelet thrombus formation after laser injury in VWF HA1 mice; parameters: species or system human platelets in VWF HA1 mice
[15] = Glutathione binding in vitro; type: in vitro ADME
CD8 + T cells [16] = assay: CD8+ T cell IFN-γ levels; type: cell-based; details: relative to vehicle
BTK = molecular target: T2, BTK (Mus musculus, UniProt P35991); assay: BTK occupancy in MDSCs of tumor bearing PDA mice; type: in vivo; details: 15 mg/kg BID, Day 8, 4 hours post dose, N=5
T2 construct: MDSCs were purified from tumor bearing PDA mice; from tissue; host or cells: granulocytic and monocytic MDSCs from tumor-bearing PDA mice
T2 sequence (P35991 whole entry): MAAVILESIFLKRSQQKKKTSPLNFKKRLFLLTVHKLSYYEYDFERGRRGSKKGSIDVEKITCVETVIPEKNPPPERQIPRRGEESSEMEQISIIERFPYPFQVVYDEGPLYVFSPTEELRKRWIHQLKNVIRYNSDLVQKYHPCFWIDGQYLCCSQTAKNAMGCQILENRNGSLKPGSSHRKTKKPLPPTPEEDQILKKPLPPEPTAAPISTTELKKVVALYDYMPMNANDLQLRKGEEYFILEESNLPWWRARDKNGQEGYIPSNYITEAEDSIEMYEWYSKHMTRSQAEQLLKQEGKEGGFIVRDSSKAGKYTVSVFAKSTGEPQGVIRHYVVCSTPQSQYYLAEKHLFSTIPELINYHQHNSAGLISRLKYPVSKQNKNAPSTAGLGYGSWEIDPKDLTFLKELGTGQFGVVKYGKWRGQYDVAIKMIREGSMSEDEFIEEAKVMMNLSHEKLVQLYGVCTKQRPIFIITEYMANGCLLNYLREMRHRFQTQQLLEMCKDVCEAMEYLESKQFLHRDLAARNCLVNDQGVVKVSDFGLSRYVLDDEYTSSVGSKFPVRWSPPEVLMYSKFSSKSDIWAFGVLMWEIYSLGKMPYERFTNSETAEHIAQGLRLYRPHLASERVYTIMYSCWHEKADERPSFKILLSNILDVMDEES

CD8 + T cells [17] = assay: CD8+ T cell viability; type: cell-based; details: higher concentrations of ibrutinib; any concentration of Formula (II)
A3 adenosine receptor = A3 adenosine receptor (Homo sapiens, UniProt P0DMS8)
Sequence of A3 adenosine receptor (P0DMS8 whole entry): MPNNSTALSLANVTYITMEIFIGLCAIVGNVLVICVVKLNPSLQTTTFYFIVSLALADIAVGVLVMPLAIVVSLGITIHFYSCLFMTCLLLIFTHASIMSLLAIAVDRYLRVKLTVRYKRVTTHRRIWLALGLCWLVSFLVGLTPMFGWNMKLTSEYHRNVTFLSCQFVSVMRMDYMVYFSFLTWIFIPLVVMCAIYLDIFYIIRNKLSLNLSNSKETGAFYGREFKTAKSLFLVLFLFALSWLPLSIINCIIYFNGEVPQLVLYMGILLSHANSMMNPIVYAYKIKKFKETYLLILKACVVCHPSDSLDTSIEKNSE

KrasLA2 NSCLC tumors = assay: KrasLA2 genetic NSCLC model; type: in vivo, mouse
[18] = system: CD8 + T cells with B lymphoblast targets; assay: Cytotoxic T cell (CTL) assay; type: cell-based; details: 500 nM, relative to vehicle
[19] = system: NK cells (CD56+/CD107a+) with MEC-1 cells; assay: Obinutuzumab-stimulated NK cell degranulation in whole blood; type: cell-based, human; details: obinutuzumab 1 μg/mL; 0.1, 1, 10 μM
CD4 + T cells = assay: Th17 and Treg development of CD4+ T cells; type: cell-based
[20] = system: NK cells with rituximab-coated DHL4 lymphoma cells; assay: Rituximab-dependent NK cell degranulation (CD107a); type: cell-based, human
apoptotic B-CLL = assay: Apoptosis of B-CLL cells in treated CLL patients; type: in vivo, human
[21] = system: KPC pancreatic tumors (KRAS, p53); assay: KPC genetic pancreatic cancer model; type: in vivo, mouse
[22] = system: GPVI platelet aggregation; assay: GPVI (convulxin-induced) human platelet aggregation; type: cell-based
relapsed/refractory CLL = assay: Clinical study of Formula (II) in relapsed/refractory CLL

For `CC#CC(=O)N1CCC[C@H]1c1nc(-c2ccc(C(=O)Nc3ccccn3)cc2)c2c(N)nccn12` [Formula (II), (<S)-4-(8-amino-3-(l-(but-2-ynoyl)pyrrolidin-2-yl)imidazo[l,5-a]pyrazin-l-yl)-N-(pyridin-2-yl)benzamide], the “B cells (in words)” value (ID8 ovarian cancer) was “significant reduction in total B cells; also recorded: significant reduction in immunosuppressive B cells”, the “B regulatory cells (Bregs) (in words)” value (ID8 ovarian cancer) was “significant reduction in B regulatory cells (Bregs)” and the “CD8+ T cells (in words)” value (ID8 ovarian cancer) was “increase in CD8 + T cells”. For the same molecule, the “ID8 ovarian cancer growth (in words)” value (ID8 ovarian cancer) was “impairs ID8 ovarian cancer growth”, the “tumor associated Tregs (in words)” value (ID8 ovarian cancer) was “significant reduction in immunosuppressive tumor associated Tregs” and the “tumor-associated lymphocytes (in words)” value (ID8 ovarian cancer) was “significant reduction in immunosuppressive tumor-associated lymphocytes”. For the same molecule, the “MDSC (monocytic) change vs ALC (in words)” value [1] was “patients with decreasing ALC % had increasing MDSC (monocytic) %”, the “NK cell change vs ALC (in words)” value [1] was “patients with decreasing ALC % had increasing NK cell %” and the “CYP metabolism (in words)” value (CYP3A4) was “metabolized by CYP3A4”. For the same molecule, the EC50 [2] was 8.2 nM, the Kp at 0.5 h ([3]; brain, flushed brains, 5 or 30 mg/kg/day oral gavage, 30 min after dosing, read-out: brain concentration relative to matched plasma) was 0.03 to 0.04 and the Kp at 0.5 h ([3]; csf, 5 and 30 mg/kg/day oral gavage, read-out: CSF concentration relative to plasma) was 0.01 to 0.02. For the same molecule, the “levels in brain and CSF (in words)” value ([3]; in vivo) was “crosses the blood-brain barrier; also recorded: low but detectable levels”, the “neurobehavioral effects / body temperature (in words)” value [4] was “no adverse effects on neurobehavioral effects or body temperature” and the “immature myeloid infiltrate (in words)” value [5] was “decreased immature myeloid infiltrate”. The “immunosuppressive tumor associated myeloid cells and Tregs (in words)” value [5] was “reduce immunosuppressive tumor associated myeloid cells and Tregs”, the “number of Tregs (in words)” value [5] was “reduced the number of immunospressive Tregs” and the “number of tumor associated macrophages (in words)” value [5] was “reduced the number of tumor associated macrophages”. For the same molecule, the “tumor burden (in words)” value [5] was “significantly reduced tumor burden”, the “tumor volume (in words)” value ([5]; vs vehicle) was “statistically significant reductions in tumor volume” and the “metabolic processes in vivo (in words)” value [6] was “oxidation, glutathione binding, and hydrolysis”. For the same molecule, the “metabolites in hepatocytes (in words)” value (hepatocytes) was “two mono-oxidized metabolites and a glutathione conjugate; also recorded: No unique human metabolite was identified”, the “inhibition of rituximab ADCC (in words)” value (primary CLL cells) was “not inhibited” and the “reduction in tumor size (in words)” value [7] was “efficacy alone”. For the same molecule, the “inhibition of rituximab ADCC (in words)” value [8] was “not inhibited”, the “inhibition of EGFR phosphorylation (in words)” value ([9]; A431) was “no inhibition” and the “EGF-induced p-EGFR inhibition” value ([9]; 2 h, EGF 100 ng/mL 5 min) was 7%. For the same molecule, the “NK cell degranulation (in words)” value [10] was “no inhibitory effect”, the “CYP drug-drug interaction potential (in words)” value (CYP enzymes) was “very unlikely to cause clinical drug-drug interactions” and the “cardiovascular/ECG/body temperature (in words)” value [11] was “no meaningful changes in body temperature, cardiovascular, or electrocardiographic (ECG) (including QT interval) parameters”. For the same molecule, the “inhibition of Itk (in words)” value (Itk kinase) was “not a potent inhibitor of Itk kinase”, the “respiratory function (in words)” value [12] was “no treatment-related adverse effects” and the “NK cell cytokine release (in words)” value [13] was “no inhibitory effect”. For the same molecule, the “CCL2 levels (in words)” value (CXCL12 and CCL2) was “significant decrease”, the “CXCL12 levels (in words)” value (CXCL12 and CCL2) was “significant decrease” and the “effect on thrombus formation (in words)” value [14] was “does not interfere with thrombus formation; also recorded: no significant effect on human platelet-mediated thrombus formation”. For the same molecule, the “glutathione binding (in words)” value [15] was “binds to glutathione but does not deplete glutathione”, the “CD8+ T cell function as IFN-γ level (in words)” value (CD8 + T cells [16]) was “no effect on CD8 + T cell function” and the “BTK occupancy in granulocytic and monocytic MDSC (in words)” value (BTK) was “Complete BTK occupancy”. For the same molecule, the “CD8+ T cell viability (in words)” value (CD8 + T cells [17]) was “not observed”, the “activity in 80-target binding screen (in words)” value (A3 adenosine receptor) was “significant activity only against the A3 adenosine receptor” and the “number of tumors (in words)” value (KrasLA2 NSCLC tumors; 15 mg/kg) was “fewer overall tumors”. For the same molecule, the “tumor volumes vs vehicle (in words)” value (KrasLA2 NSCLC tumors; 15 mg/kg) was “significant decrease in tumor volumes”, the “MDSCs (in words)” value (KrasLA2 NSCLC tumors; mouse, in vivo) was “significant reduction in immunosuppressive tumor associated MDSCs” and the “TAMs (in words)” value (KrasLA2 NSCLC tumors; mouse, in vivo) was “significant reduction in immunosuppressive tumor associated TAMs”. The “Tregs (in words)” value (KrasLA2 NSCLC tumors; mouse, in vivo) was “significant reduction in immunosuppressive tumor associated Tregs”, the “CD8+ T cell function as % cytotoxicity (in words)” value [18] was “no effect on CD8 + T cell function” and the “obinutuzumab-stimulated NK cell degranulation (in words)” value [19] was “minimal effect”. The “Th17 development (in words)” value (CD4 + T cells) was “no adverse effects”, the “Treg development (in words)” value (CD4 + T cells) was “no adverse effects” and the “reduction of NK cell degranulation” value ([20]; rituximab-stimulated, 240 min) was < 2%. For the same molecule, the “NK cell degranulation (in words)” value ([20]; rituximab, Formula (II) 1 μM) was “did not inhibit”, the “samples with baseline change in apoptosis greater than 25%” value (apoptotic B-CLL; cleaved PARP+, Caspase 3+, CD19+, CD5+) was 82 % of samples and the “apoptosis of B-CLL (in words)” value (apoptotic B-CLL; human, in vivo) was “increased apoptotis”. The “survival at day 14” value ([21]; 15 mg/kg BID oral) was 6/6, the “survival at day 28” value ([21]; 15 mg/kg BID oral) was 5/6 and the “tumor growth and survival (in words)” value ([21]; 15 mg/kg BID oral, combination with gemcitabine 50 mg/kg IV) was “substantially slowed pancreatic cancer growth and increased animal survival; also recorded: compared favorably with gemcitabine alone”. For the same molecule, the “tumor volume, day 28, average” value ([21]; 15 mg/kg BID oral, predose 165) was 272 mm3, the “CD8+ cells (in words)” value ([21]; tumor tissue) was “significant increase in CD8 + cells” and the “MDSCs (Gr1+Ly6CHi) (in words)” value ([21]; tumor tissue) was “significantly reduced”. The “TAMs (CD11b+Ly6ClowF4/80+Csf1r+) (in words)” value ([21]; tumor tissue) was “significantly reduced”, the “Tregs (CD4+CD25+FoxP3+) (in words)” value ([21]; tumor tissue) was “significantly reduced” and the “inhibition of GPVI platelet aggregation (in words)” value [22] was “does not”. The IC50 ([22]; Homo sapiens, Platelet, read-out: IC50, GPVI platelet aggregation) was 1150 nM, the “time to same median % change in SPD” value (relapsed/refractory CLL; CLL, compared with ibrutinib) was 7 months and the “SPD change vs ibrutinib (in words)” value (relapsed/refractory CLL; FIG. 37) was “decreases more rapidly”. The “absolute lymphocyte count (ALC) change vs ibrutinib (in words)” value (relapsed/refractory CLL; FIG. 37) was “much smaller relative increase and much faster decrease in absolute lymphocyte count (ALC)”, the “adverse event grade (in words)” value (relapsed/refractory CLL; human, in vivo) was “only grade 1 AEs were observed” and the “disease progression in 17p deletion patients (in words)” value (relapsed/refractory CLL; human, in vivo) was “no 17p patients have progressed”. For the same molecule, the “dose-limiting toxicities (in words)” value (relapsed/refractory CLL; human, in vivo) was “No DLTs were observed; also recorded: has not demonstrated any DLTs to date”, the “lymphocytosis (in words)” value (relapsed/refractory CLL; human, in vivo) was “A lack of lymphocytosis” and the “treatment-related serious adverse events (in words)” value (relapsed/refractory CLL; human, in vivo) was “No treatment-related serious adverse events (SAEs) were observed”.
